The text below walks through data of publication PMC6273235, “Phenolic Constituents of Medicinal Plants with Activity against Trypanosoma brucei” (Molecules, 2016).

In data set [1] the test system is T. b. brucei strain 427 (bloodstream forms). The data set can be described thus: Anti-trypanosomal activity on T. brucei (resazurin growth inhibition, 3 days). The format is cell-based, Trypanosoma brucei. From the text: To identify inhibitors of T. brucei growth, we conducted a screening of a proprietary library consisting of 440 purified natural products isolated from medicinal plants at the CNU laboratories. […] Nevertheless, since, according to the 5th rule, natural products may also represent exceptions from the other rules, all compounds were submitted to antiparasitic screening performed at a single concentration of 5 ppm (µg/mL) of each purified natural product.
T. b. brucei strain 427 (bloodstream forms) were cultivated at 37 °C with 5% CO2 atmosphere in HMI-9 medium supplemented with 10% FBS. […] After the incubation, the parasites were exposed to 120 µM of resazurin sodium salt for 5 h. Then, the parasites were fixed with 4% PFA and the assay plates were read by Victor 3 (PerkinElmer, Waltham, MA, USA) at 530 nmEx/590 nmEm. Pentamidine was used as a reference drug and DMSO 0.5% was used as a drug-negative control.

A short description of data set [2]: Cytotoxicity assay (resazurin, 3 days), HEK293T. In kind it is cell-based, human. Particulars: human. The method, then: (§1) HEK293T and HepG2 cells were cultured at 37 °C with 5% CO2 in Dulbecco’s modified eagle medium containing 10% FBS. Both cell lines were plated individually in 384 well plates (4000 cells per well) and the natural compounds (two fold 10 points serial dilution starting from 5 ppm) were added for 3 days of incubation.

Another data set deals with HEK293T cells. Briefly: Cytotoxicity assay (resazurin, 3 days), HEK293T. The format is cell-based, human. The following applies: for s.i (selectivity index) HEK239T: CC50 (HEK293T)/IC50 (T. brucei). How it is done:
as §1

Data set [3] is described as follows: Cytotoxicity assay (resazurin, 3 days), HepG2. The following applies: human. In kind it is cell-based, human. The method, then: as §1
A general note: Resazurin is reduced to fluorescent resorufin, in cell work by metabolically active cells.

The subject of a further data set is HepG2 cells. The data set can be described thus: Cytotoxicity assay (resazurin, 3 days), HepG2. In kind it is cell-based, human. The following applies: for s.i (selectivity index) HepG2: CC50 (HepG2)/IC50 (T. brucei). How it is done:
as §1

A further data set has as its system Trypanosoma. Further details: method as in PMID 16569852, PMID 20004045. Particulars: cited from earlier work.
The mark [4] stands for this setting: Trypanosoma brucei, 72 h, T. b. brucei strain 427 bloodstream forms, 3 days, mean ± SD, read-out: T. brucei IC50.
Setting [5] is: Trypanosoma brucei, -log IC50 [M], experimental, read-out: pIC50 Tbr(exp) (converted).
[6] abbreviates: T. b. brucei strain 427 bloodstream forms, 3 days, mean ± SD, read-out: T. brucei IC50.

Read-outs that look alike come from different tables or passages of the source. Bounds are passed on as bounds.

In the case of `O=C(/C=C/c1ccc(O)cc1)CC(=O)/C=C/c1ccc(O)cc1` [Compound 1, bisdemethoxycurcumin], the IC50 in data set [1] (setting [4]) is 9.84e-06 ± 8.4e-07 M; in data set [1] (setting [5]), 9.84e-06 M. Further, the CC50 at 3 days in data set [2] and in data set [3] was greater than 32.5 µM each time. In addition, the “s.i (selectivity index) HEK239T” value in the data set with HEK293T cells is greater than 3.30. Besides, the “s.i (selectivity index) HepG2” value with HepG2 cells is greater than 3.30. Besides, the “anti-trypanosomal activity previously reported” value with Trypanosoma is listed as “anti-trypanosomal activity”.

For `COc1ccc([C@@H](O)[C@@H](C)Oc2ccc([C@H]3O[C@H](c4ccc(O[C@H](C)[C@H](O)c5ccc6c(c5)OCO6)c(OC)c4)[C@H](C)[C@H]3C)cc2OC)cc1OC` [Compound 14, manassantin B], the IC50 in data set [1] (setting [6]) was 3.54e-06 ± 4.9e-07 M; in data set [1] (setting [4]), less than 5e-06 M; in data set [1] (setting [5]), 3.54e-06 M. Besides, the CC50 – broadly, the concentration giving 50% cytotoxicity – at 3 days in data set [2] is greater than 11 µM; in data set [3] it was greater than 13.9 µM. In the data set with HEK293T cells, the “s.i (selectivity index) HEK239T” value is on record as greater than 3.12. Moreover, the “s.i (selectivity index) HepG2” value with HepG2 cells was greater than 3.93.

Take `C=C(C)[C@H](CC=C(C)C)Cc1c(O)cc(O)c2c1O[C@H](c1ccc(O)cc1O)CC2=O` [Compound 15, kushenol F]: in data set [1] (setting [5]), the IC50 was 1.37e-06 M. The CC50 at 3 days in data set [2] and in data set [3] was greater than 23.8 µM throughout. In the data set on HEK293T cells, the “s.i (selectivity index) HEK239T” value is greater than 17.34. The “s.i (selectivity index) HepG2” value in the data set on HepG2 cells was greater than 17.34.

As to `O=c1cc(-c2ccc(O)cc2)oc2cc(O)cc(O)c12` [Compound 16, apigenin], the IC50 in data set [1] (setting [6]) is 1.1e-05 ± 2.64e-06 M; in data set [1] (setting [4]) it was greater than 1e-05 M; in data set [1] (setting [5]) it was 1.1e-05 M. For the same compound, the half-maximal cytotoxic concentration (CC50) at 3 days in data set [2] and in data set [3] was greater than 37 µM in each case. For the same compound, the “s.i (selectivity index) HEK239T” value with HEK293T cells is greater than 3.38. Moreover, the “s.i (selectivity index) HepG2” value in the data set with HepG2 cells is reported as greater than 3.38. Also, in the data set on Trypanosoma, the “anti-trypanosomal activity previously reported” value is “anti-trypanosomal activity”.

With `COc1ccc(-c2cc(=O)c3c(O)c(OC)c(O)cc3o2)cc1OC` [Compound 17, eupatilin], the IC50 in data set [1] (setting [4]) is 8.14e-06 ± 1.37e-06 M; in data set [1] (setting [5]), 8.15e-06 M. Besides, the CC50 at 3 days in data set [2] and in data set [3] was greater than 29.1 µM each time. In the data set with HEK293T cells, the “s.i (selectivity index) HEK239T” value is given as greater than 3.58. The “s.i (selectivity index) HepG2” value in the data set with HepG2 cells is greater than 3.58.

On to `CC(C)=CCc1c(-c2ccc(O)cc2O)oc2c3c(cc(O)c2c1=O)OC(C)(C)C=C3` [Compound 18, morusin], for which the IC50 in data set [1] (setting [6]) is 3.4e-06 ± 1.5e-07 M; in data set [1] (setting [4]) it was less than 5e-06 M; in data set [1] (setting [5]), 3.4e-06 M. Moreover, the CC50 at 3 days in data set [2] and in data set [3] was greater than 23.7 µM throughout. In the data set on HEK293T cells, the “s.i (selectivity index) HEK239T” value was greater than 6.98. The “s.i (selectivity index) HepG2” value in the data set with HepG2 cells is greater than 6.98.

On to `O=C1c2ccc(O)cc2OC[C@H]1Cc1ccc(O)c(O)c1` [Compound 19, 3-deoxysappanone B], for which the IC50 is 5.8e-06 ± 7e-08 M in data set [1] (setting [4]) and 5.79e-06 M in data set [1] (setting [5]). The CC50 at 3 days in data set [2] and in data set [3] was greater than 35 µM in each case. Further, the “s.i (selectivity index) HEK239T” value in the data set on HEK293T cells is reported as greater than 6.04. In addition, the “s.i (selectivity index) HepG2” value in the data set with HepG2 cells is recorded as greater than 6.04.

For the compound `CC(C)=CCc1c(O)c(CC=C(C)C)c2occ(-c3ccc(O)c(O)c3)c(=O)c2c1O` [Compound 20, 6,8-diprenylorobol], the IC50 in data set [1] (setting [5]) was 5.2e-07 M. The CC50 at 3 days in data set [2] and in data set [3] was greater than 24.1 µM throughout. Further, the “s.i (selectivity index) HEK239T” value with HEK293T cells is greater than 46.34. Moreover, the “s.i (selectivity index) HepG2” value in the data set with HepG2 cells is greater than 46.34.

As to `O=c1c(-c2ccc(O)cc2)coc2cc(O[C@@H]3O[C@H](CO)[C@@H](O)[C@H](O)[C@H]3O)cc(O)c12` [Compound 21, genistin], the IC50 in data set [1] (setting [6]) was 3.31e-06 ± 7.5e-07 M; in data set [1] (setting [4]), less than 5e-06 M; in data set [1] (setting [5]) it was 3.31e-06 M. For the same compound, the CC50 at 3 days in data set [2] and in data set [3] was greater than 23.1 µM throughout. Further, in the data set with HEK293T cells, the “s.i (selectivity index) HEK239T” value is greater than 6.99. In the data set with HepG2 cells, the “s.i (selectivity index) HepG2” value is listed as greater than 6.99.

`O=c1c(-c2ccc(O[C@@H]3O[C@H](CO)[C@@H](O)[C@H](O)[C@H]3O)cc2)coc2cc(O)cc(O)c12` [Compound 22, sophoricoside]: the IC50 is 6.5e-06 ± 5.2e-07 M in data set [1] (setting [4]) and 6.5e-06 M in data set [1] (setting [5]). Further, the CC50 at 3 days in data set [2] and in data set [3] was greater than 23.1 µM throughout. Further, the “s.i (selectivity index) HEK239T” value in the data set with HEK293T cells is greater than 3.56. For the same compound, the “s.i (selectivity index) HepG2” value in the data set with HepG2 cells was greater than 3.56.

As to demethoxycurcumin [Compound 2], the “pIC50 Tbr(exp)” value in data set [1] (-log IC50 [M], experimental) is 5.143. Moreover, in data set [1] (setting [6]), the IC50 is 7.19e-06 ± 1.02e-06 M. For the same compound, the CC50 in the data set on HEK293T cells (HEK293T cells, 3 days, > = highest concentration tested (5 ppm), read-out: Cytotoxicity CC50 Values HEK239T) is greater than 21.4 µM; in the data set on HepG2 cells (HepG2 cells, 3 days, > = highest concentration tested (5 ppm)) it was greater than 29.6 µM. Besides, the “anti-trypanosomal activity previously reported” value in the data set with Trypanosoma was “anti-trypanosomal activity”.
